What is called IC50 is the point on the concentration scale where inhibition reaches its midpoint. A lower IC50 goes with higher potency.

Assay [1] in a line: Inhibition of bovine pancreas trypsin using N-alpha-benzoyl-L-arginine-pnitroanilide substrate preincubated for 15 mins followed by substrate addition and measured after 30 mins. In kind it is tissue-based, Bos taurus.
The species entered for the next assay is Bos taurus. As to the kind of experiment: Inhibition of bovine pancreas trypsin at 0.01 to 8 uM using N-alpha-benzoyl-L-arginine-pnitroanilide substrate preincubated for 15 mins followed by substrate addition and measured after 30 mins. The assay is classed as tissue-based. The settings on record: dose microM 0.01-8, time 45.0 min.

Activity calls are given as the source filed them. No cut-off for these calls is given here. Bridge positions count the residues as written; N and C are the ends. Square brackets hold non-standard residues; d marks the D form. Peptide text beside a SMILES is read from it. pGlu = O=C1CC[C@@H](C(=O)O)N1

Regarding `CSCC[C@@H]1NC(=O)[C@H](C(C)C)NC(=O)[C@H](CCCCN)NC(=O)[C@@H](NC(=O)[C@H](CCC(N)=O)NC(=O)[C@H](CCC(=O)O)NC(=O)[C@@H]2CCCN2C(=O)[C@H](CC(=O)O)NC(=O)[C@@H](NC(=O)[C@@H](N)CC(N)=O)[C@@H](C)O)CSSC[C@@H](C(=O)N[C@@H](CCC(=O)O)C(=O)N[C@@H](CCCCN)C(=O)N[C@@H](CCC(=O)O)C(=O)N[C@@H](Cc2c[nH]cn2)C(=O)N[C@@H](CC(=O)O)C(=O)O)NC(=O)[C@H](CCC(N)=O)NC(=O)[C@H](CC(=O)O)NC(=O)[C@H](CC(C)C)NC(=O)[C@@H]2CSSC[C@H](NC1=O)C(=O)N[C@@H](Cc1ccc(O)cc1)C(=O)N[C@@H](C)C(=O)N[C@@H](CCC(N)=O)C(=O)N[C@@H](CCCNC(=N)N)C(=O)N[C@@H](Cc1c[nH]cn1)C(=O)N[C@@H](CO)C(=O)N[C@@H](CO)C(=O)N1CCC[C@H]1C(=O)N[C@@H](CCC(=O)O)C(=O)N[C@@H](CC(C)C)C(=O)N[C@@H](CC(C)C)C(=O)N[C@@H](CCCNC(=N)N)C(=O)N[C@@H](CCCNC(=N)N)C(=O)N2` (H-NTDPEQCKVMCYAQRHSSPELLRRCLDQCEKEHD-OH; disulfide 7-29, 11-25), the IC50 in assay [1] worked out at 400 nM. For the molecule `CC[C@H](C)[C@H](NC(=O)[C@H](CCC(N)=O)NC(=O)[C@H](CCCNC(=N)N)NC(=O)[C@H](CCCCN)NC(=O)[C@@H]1CCCN1)C(=O)N[C@@H](CCC(=O)O)C(=O)N[C@@H](CCCNC(=N)N)C(=O)N[C@H]1CSSC[C@@H](C(=O)N[C@@H](CCC(=O)O)C(=O)N[C@@H](CCC(=O)O)C(=O)N[C@@H](CCC(N)=O)C(=O)N[C@@H](CCC(=O)O)C(=O)N[C@@H](CCC(=O)O)C(=O)N[C@@H](CCCCN)C(=O)N[C@@H](CCCNC(=N)N)C(=O)NCC(=O)N[C@@H](CCC(N)=O)C(=O)NCC(=O)N[C@@H](CC(=O)O)C(=O)O)NC(=O)[C@H](CCC(N)=O)NC(=O)[C@H](CCCNC(=N)N)NC(=O)[C@H](C(C)C)NC(=O)[C@@H]2CSSC[C@H](NC(=O)[C@H](CCC(=O)O)NC(=O)[C@H](CCC(N)=O)NC(=O)[C@H](CCCCN)NC1=O)C(=O)N[C@@H](CCCNC(=N)N)C(=O)N[C@@H](CCC(=O)O)C(=O)N[C@@H](CO)C(=O)N[C@@H](CCCNC(=N)N)C(=O)N[C@@H](CCC(N)=O)C(=O)NCC(=O)N[C@@H](CCC(=O)O)C(=O)N[C@@H](CCC(N)=O)C(=O)N[C@@H](CCC(N)=O)C(=O)N[C@@H](CCC(=O)O)C(=O)N[C@@H](CCCNC(=N)N)C(=O)N[C@@H](CCC(N)=O)C(=O)N2` (H-PKRQIERCKQECRESRQGEQQERQCVRQCEEQEEKRGQGD-OH; disulfide 8-29, 12-25), the inhibition result in the assay filed under Bos taurus was “inactive”. For the molecule `CC[C@H](C)[C@H](NC(=O)[C@H](CCC(=O)O)NC(=O)[C@@H](NC(=O)[C@H](CCC(=O)O)NC(=O)[C@H](CCCCN)NC(=O)[C@@H]1CCC(=O)N1)[C@@H](C)O)C(=O)N[C@H]1CSSC[C@@H](C(=O)N[C@@H](CCC(=O)O)C(=O)N[C@@H](CCC(=O)O)C(=O)N[C@@H](CCCNC(=N)N)C(=O)N[C@@H](CC(C)C)C(=O)N[C@@H](CCCNC(=N)N)C(=O)N[C@@H](CC(=O)O)C(=O)O)NC(=O)[C@H](CCC(=O)O)NC(=O)[C@H](CCC(N)=O)NC(=O)[C@H](CCC(N)=O)NC(=O)[C@@H]2CSSC[C@H](NC(=O)[C@H](Cc3c[nH]c4ccccc34)NC(=O)[C@H](CCC(N)=O)NC(=O)[C@H](CCCNC(=N)N)NC1=O)C(=O)N[C@@H](CCC(N)=O)C(=O)N[C@@H](C(C)C)C(=O)N[C@@H](CCSC)C(=O)N[C@@H](CCCCN)C(=O)N1CCC[C@H]1C(=O)N[C@@H](CCC(N)=O)C(=O)NCC(=O)NCC(=O)N[C@@H](CCC(=O)O)C(=O)N[C@@H](CCC(=O)O)C(=O)N[C@@H](CCC(N)=O)C(=O)N[C@@H](CCCNC(=N)N)C(=O)N[C@@H](CCCNC(=N)N)C(=O)N2` ([pGlu]KETEICRQWCQVMKPQGGEEQRRCQQECEERLRD-OH; disulfide 7-29, 11-25), the inhibition result in the assay filed under Bos taurus is “inactive”.

These data come from ChEMBL document CHEMBL4699531, “Defining the Familial Fold of the Vicilin-Buried Peptide Family” (J Nat Prod, 2020).
